Laboratory results from ChEMBL document CHEMBL5365476, “VHL-Modified PROteolysis TArgeting Chimeras (PROTACs) as a Strategy to Evade Metabolic Degradation in In Vitro Applications” (J Med Chem, 2023).

Assays:
[1] = Drug metabolism in HEK293 cells cytosol assessed as M-200 metabolite formation incubated for 60 mins; type: ADME, subcellular; details: human, 1 h
[2] = Drug metabolism in HEK293 cells cytosol assessed as M+16 metabolite formation incubated for 60 mins; type: ADME, subcellular; details: human, 1 h
[3] = Metabolic stability in human hepatocytes assessed as half life; type: ADME, cell-based, Hepatocyte
[4] = target: von Hippel-Lindau disease tumor suppressor (Homo sapiens) (UniProt P40337); test: Binding affinity to 6-His tagged human VHL at 50 uM incubated for 1 hr by HTRF based assay relative to control
Chain of von Hippel-Lindau disease tumor suppressor (Homo sapiens) (P40337 whole entry, looked up): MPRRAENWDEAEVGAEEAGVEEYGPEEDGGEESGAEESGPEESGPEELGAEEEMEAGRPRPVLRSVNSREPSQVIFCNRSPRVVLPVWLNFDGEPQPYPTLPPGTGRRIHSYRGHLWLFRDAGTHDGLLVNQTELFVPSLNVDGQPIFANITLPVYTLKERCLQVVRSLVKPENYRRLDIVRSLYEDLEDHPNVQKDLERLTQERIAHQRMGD

[5] = Metabolic stability in HEK293 cells cytosol assessed as half life; type: ADME, subcellular; details: human, HEK293 cell cytosol
[6] = Drug metabolism in human hepatocytes assessed as M-200 metabolite formation incubated for 240 mins in presence of ZPP by LC-MS/MS analysis; type: ADME, cell-based, Hepatocyte; details: 4 h
[7] = Drug metabolism in human hepatocytes assessed as M + 16 metabolite formation incubated for 240 mins by LC-MS/MS analysis; type: ADME, cell-based, Hepatocyte; details: 4 h
[8] = Drug metabolism in human hepatocytes assessed as M + 16 metabolite formation incubated for 240 mins in presence of ZPP by LC-MS/MS analysis; type: ADME, cell-based, Hepatocyte; details: 4 h
[9] = Drug metabolism in human liver microsomes assessed as M-200 metabolite formation incubated for 60 mins; type: ADME, Microsome; details: 1 h
[10] = Drug metabolism in human liver microsomes assessed as M-200 metabolite formation incubated for 60 mins in presence of 1 nM ZPP; type: ADME, Microsome; details: 1 h
[11] = Drug metabolism in human liver microsomes assessed as M-200 metabolite formation incubated for 60 mins in presence of 30 nM ZPP; type: ADME, Microsome; details: 1 h
[12] = Drug metabolism in human liver cytosol assessed as M-200 metabolite formation incubated for 60 mins in presence of 30 nM ZPP; type: ADME, subcellular; details: 1 h
[13] = Drug metabolism in human hepatocytes assessed as M-200 metabolite formation incubated for 240 mins in presence of 3 uM ZPP by LC-MS/MS analysis; type: ADME, cell-based, Hepatocyte; details: 4 h
[14] = Drug metabolism in HEK293 cells cytosol assessed as M-200 metabolite formation incubated for 60 mins in presence of 30 nM ZPP; type: ADME, subcellular; details: human, 1 h
[15] = Drug metabolism in HEK293 cells cytosol assessed as M-525 metabolite formation; type: ADME, subcellular; details: human
[16] = Drug metabolism in human liver cytosol assessed as M-200 metabolite formation incubated for 60 mins in presence of 100 uM ZPP; type: ADME, subcellular; details: 1 h
[17] = Drug metabolism in HEK293 cells cytosol assessed as M+16 metabolite formation incubated for 60 mins in presence of 1 to 30 nM ZPP; type: ADME, subcellular; details: human, 1 h

SMILES: Cc1ncsc1-c1ccc(-c2cnc([C@@H]3C[C@@H](O)CN3C(=O)[C@@H](NC(=O)CCCCNC(=O)COc3c(-c4csc(N5CCOCC5)n4)ccc(F)c3F)C(C)(C)C)[nH]2)cc1
- Drug metabolism [1]: Metabolite_Notdetected
- Drug metabolism [2]: Metabolite_Detected

SMILES: Cc1nc(C)c(-c2ccc([C@H](C)NC(=O)[C@@H]3C[C@@H](O)CN3C(=O)[C@@H](N)C(C)(C)C)cc2)s1.Cl
- half-life [3]: 2.74 h
- Activity [4]: 65%

SMILES: Cc1nc(C)c(-c2ccc(-c3cnc([C@@H]4C[C@@H](O)CN4C(=O)[C@@H](NC(=O)CCCCNC(=O)COc4c(-c5csc(N6CCOCC6)n5)ccc(F)c4F)C(C)(C)C)[nH]3)cc2)s1
- half-life [5]: 17.1 h

SMILES: Cc1ncsc1-c1ccc([C@H](C)NC(=O)[C@@H]2C[C@@H](O)CN2C(=O)[C@@H](NC(=O)CCCCNC(=O)COc2c(-c3csc(N4CCOCC4)n3)ccc(F)c2F)C(C)(C)C)cc1
- Drug metabolism [6]: Metabolite_Detected
- Drug metabolism [7]: Metabolite_Detected
- Drug metabolism [8]: Metabolite_Detected
- Drug metabolism [9]: Metabolite_Notdetected
- Drug metabolism [10]: Metabolite_Notdetected
- Drug metabolism [11]: Metabolite_Notdetected
- Drug metabolism [12]: Metabolite_Notdetected
- Drug metabolism [13]: Metabolite_Notdetected
- Drug metabolism [14]: Metabolite_Notdetected
- Drug metabolism [15]: Metabolite_Detected
- half-life [5]: 2.85 h

SMILES: Cc1nc(C)c(-c2ccc(-c3c[nH]c([C@@H]4C[C@@H](O)CN4C(=O)[C@@H](N)C(C)(C)C)n3)cc2)s1
- half-life [3]: 5.58 h
- Activity [4]: 35%

SMILES: Cc1ncsc1-c1ccc([C@H](C)NC(=O)[C@@H]2C[C@@H](O)CN2C(=O)[C@@H](N)C(C)(C)C)cc1
- Drug metabolism [7]: Metabolite_Detected
- Drug metabolism [8]: Metabolite_Detected
- Drug metabolism [16]: Metabolite_Detected
- Drug metabolism [2]: Metabolite_Detected
- Drug metabolism [17]: Metabolite_Detected
- half-life [3]: 2.01 h
- Activity [4]: 73%

SMILES: Cc1ncsc1-c1ccc(-c2c[nH]c([C@@H]3C[C@@H](O)CN3C(=O)[C@@H](N)C(C)(C)C)n2)cc1
- half-life [3]: 5.76 h
- Activity [4]: 21%
